Source: article PMC10303920, “Competition between skin antimicrobial peptides and commensal bacteria in type 2 inflammation enables survival of S. aureus” (Cell reports, 2023)

Test system: mixture of S. aureus (ATCC35556), ShA9-WT and ShA9-ΔLanti
Assay: Staphylococcus competition assay in vitro
Assay type: cell-based, Staphylococcus aureus, Staphylococcus hominis
Conditions: RPMI1640, 1 × 10^6 CFU/mL each strain, 30°C, 3 h, Figure 6B
Method: Three Staphylococcus strains, S. aureus (ATCC35556), ShA9-WT (antibiotic-producing strain) or ShA9-Dlanti mutant (non-antimicrobial strain) were individually cultured in TSB. Bacterial cells were washed with PBS and re-suspended in fresh PBS. For in vitro competition assay, three bacterial strains were suspended in RPMI1640 media (1mL) at 1 × 10^6 CFU/mL each and LL-37 was added at 0, 1, 2, 4, 8, 16μM. Bacterial mixture were incubated at 30°C for 3 h without shaking. […] Proportion of three Staphylococcus strains was determined by CFU counting on mannitol salt agar with egg yolk for total Staphylococcus CFU and on Barid-Parker agar for S. aureus. Relative proportion of Staphylococcus species was determined as following; S. aureus: CFUs on Baird-Parker CFU/CFUs on mannitol salt agar, CoNS: CFUs on mannitol salt agar – CFUs on Baird-Parker. Ratio of ShA9-WT to ShA9-DLanti mutant were measured by analyzing 12 colonies of pink color CoNS colonies without halo on mannitol salt agar from each sample with colony PCR using lantibiotic-specific primers (key resources table).
Survival of S. aureus and CoNS were measured on Baird-Parker agar for S. aureus or mannitol salt agar with egg yolk for total Staphylococcus species using easySpiral automatic diluter plater with exponential mode or circle mode and automatic colony counter (Interscience Inc., France). […]

Substance: LL-37
- Shift in relative proportion of the bacterial mixture at lower LL-37 concentrations (LL-37 1–4 μM): favor growth of S. aureus and ShA9-ΔLanti over the antibiotic-producing ShA9-WT
- Effect on the bacterial mixture at higher LL-37 concentrations (LL-37 8–16 μM): inhibited both the antibiotic-producing CoNS and S. aureus
